pEC50: −log10 of the molar value.
Assays:
Plasmodium falciparum [1] = test: NOVARTIS: Inhibition of Plasmodium falciparum 3D7 (drug-susceptible) proliferation in erythrocyte-based infection assay; assay type: functional, organism-based; conditions: Plasmodium falciparum, 3D7
Plasmodium falciparum [2] = test: NOVARTIS: Inhibition of Plasmodium falciparum W2 (drug-resistant) proliferation in erythrocyte-based infection assay; assay type: functional, organism-based; conditions: Plasmodium falciparum, W2; read-out: EC50
[3] = NOVARTIS: Cytotoxicity against human hepatocellular carcinoma cell line (Huh7); assay type: toxicity, cell-based, Huh-7; conditions: Huh7 cells (hepatocellular carcinoma cell line)

SMILES | pEC50 (Plasmodium falciparum [1]) | pEC50 (Plasmodium falciparum [2]) | CC50 [3]
O=C1c2ccccc2-c2nnc(-c3ccccc3)cc21 | 6.57 | 6.41 | > 10 µM
c1ccc(C2CC(C3CC(c4ccccc4)OC(c4ccccc4)C3)CC(c3ccccc3)O2)cc1 (centres undefined) | 5.91 | 6.40 | > 10 µM
O=C(CCl)NCCOc1ccc(Cl)cc1Cl | 6.27 | 6.29 | 13 µM
CCOc1ccc2[nH]c(=O)c(CN(CCc3ccccc3)C(=O)c3cnccn3)cc2c1 | < 6.37 | < 6.40 | > 10 µM
O=C(Nc1ccc(C2=NCCN2)cc1)c1cccc2c(C(=O)Nc3ccc(C4=NCCN4)cc3)cccc12 | 7.08 | 6.40 | > 10 µM
FC(F)(F)c1cccc(-c2nc3c(s2)CN(C2CCCC2)CC3)c1 | 5.27 | 5.53 | 73 µM
Cc1ccc(N=C2S/C(=C\c3ccccc3)C(=O)N2c2ccc(C)cc2)cc1 | < 5.76 | 6.39 | > 10 µM
Oc1ccc(-c2ccnc3cc(Cl)ccc23)cc1CNCCCn1ccnc1 | 6.78 | 6.39 | > 10 µM
CCc1ccc2[nH]c(=O)c(CN(CCN(CC)CC)C(=S)NCCCN(C)C)cc2c1 | 5.64 | 5.81 | 38.2 µM
CO[C@H]1O[C@@H]2COC(c3ccccc3)O[C@H]2[C@@H](O)[C@@H]1OCc1ccccc1 (some centres undefined) | 6.42 | 6.26 | > 13.8 µM
O=C(N/C(=C/C=C\c1ccccc1)C(=O)N1CCOCC1)c1ccc(Br)cc1 | < 5.89 | 6.40 | > 10 µM
CCc1ccc(NC(=O)c2sc3nc(N)c(C#N)c(-c4ccc(OC)c(OC)c4)c3c2N)cc1 | 5.24 | 5.40 | > 100 µM
CCCCCc1ccc(OCCCC[n+]2cccc(C)c2C)c(CCCCC)c1 | 6.67 | 6.92 | 3 µM
CCOc1ccc2nc(C)cc(Nc3ccc(N(C)C)cc3)c2c1 | 6.46 | 6.18 | 16.6 µM
CC(=O)N1CCN(c2ccc(NC(=S)NC(=O)c3ccc(C)cc3)cc2)CC1 | < 4.90 | 5.42 | > 95.7 µM
O=C(NCCc1ccccc1)c1cnc(NCCC2=CCCCC2)nc1NCC1CCCCC1 | 6.36 | 6.40 | > 10 µM
c1ccc(Nc2ccnc(Nc3ccccc3)n2)cc1 | 6.09 | 5.72 | > 49 µM
CN1C[C@@H](CSc2ccccn2)C=C2c3cccc4[nH]cc(c34)C[C@H]21 | 6.65 | 6.41 | > 10 µM
Clc1ccc(-n2cc(-c3ccccc3)c3c(N4CCC(Cc5ccccc5)CC4)ncnc32)cc1 | < 5.00 | < 5.40 | > 100 µM
Cc1cc(Nc2cccc3ccccc23)nc(Nc2cccc3ccccc23)n1 | 6.56 | 6.40 | > 10 µM
CCOC(=O)COC1=C(CCCCC2CCCCC2)C(=O)c2ccccc2C1=O | 7.24 | 5.91 | 31 µM
CC(C)(C)c1ccc2[nH]c3c(c2c1)CCCC3=NO | 5.30 | 6.08 | 20.9 µM
CC(C)CCn1nc(C(=O)N2CCOCC2)c2c1CCN(C(=O)c1ccc(N3CCOCC3)cc1)C2 | < 4.93 | 5.40 | > 100 µM
Cc1ccccc1[S+]([O-])Cc1ccc(C(=O)N2CCN(c3ccccn3)CC2)o1 (centres undefined) | < 5.15 | 5.78 | > 42 µM
Cc1cc(S(=O)(=O)NC(Cc2ccc([N+](=O)[O-])cc2)C(=O)O)c(Cl)cc1Cl (centres undefined) | < 5.90 | 6.41 | > 10 µM
COC(=O)c1ccc2c(c1)C(=O)c1ccccc1C2C1c2ccccc2C(=O)c2cc(C(=O)OC)ccc21 (centres undefined) | 6.07 | 6.40 | > 10 µM
CCN(CC)CCCN(Cc1cc2cc(OC)ccc2[nH]c1=O)C(=S)Nc1cccc(Cl)c1 | 6.10 | 6.09 | 20.5 µM

SMILES | pEC50 (Plasmodium falciparum [1]) | pEC50 (Plasmodium falciparum [2]) | CC50 [3]
O=C(NNc1nc2ccccc2nc1Cl)Nc1ccc(Cl)cc1 | 6.66 | 6.51 | 7.76 µM
O=C1C(Nc2ccccc2)=C(N2CCCCC2)C(=O)c2ccccc21 | 6.42 | 6.23 | 15 µM
CCC(=O)N1CCc2cc(S(=O)(=O)N3CCN(c4cccc(C(F)(F)F)c4)CC3)ccc21 | 6.24 | 6.40 | > 10 µM
O=C1C2C(C(=O)N1c1ccc(Br)cc1)C1C=CC2C12CC2 (centres undefined) | < 4.90 | 5.40 | > 100 µM
CC(C)(C)c1ccc(-c2c[n+](-c3ccccc3)c3n2CCCS3)cc1 | 6.66 | 6.50 | 7.87 µM
CC1CN(C(=O)C(Cc2c[nH]c3ccccc23)NC(=O)C(c2ccccc2)c2ccccc2)CCN1C(=O)NCc1ccccc1 (centres undefined) | < 5.90 | < 6.41 | > 10 µM
Cc1ccc(C(=O)Nc2ccc(-c3nc4cc5ccccc5cc4[nH]3)cc2)cc1[N+](=O)[O-] | 5.37 | 5.40 | > 100 µM
CCc1cc2c(cc1-c1csc(NC(=N)N)n1)C(C)(C)CCC2(C)C | 6.13 | 6.02 | 24.6 µM
Cc1cc(N2CCN(C/C=C/c3ccccc3)CC2)n2c(nc3ccccc32)c1C#N | 6.38 | 6.40 | > 10 µM
CC(=O)N(C1=C(N2CCOCC2)C(=O)c2ccccc2C1=O)c1cccc(Cl)c1 | 6.67 | 6.73 | 4.72 µM
CCc1[nH]nc2c1C(Cc1ccccc1)C(C#N)=C(N)O2 (centres undefined) | < 5.90 | 6.41 | > 10 µM
COc1ccc(-c2nc(-c3ccc4c(c3)-c3cc(-c5[nH]c(-c6ccc(OC)cc6)nc5-c5ccccc5)ccc3C4=O)c(-c3ccccc3)[nH]2)cc1 | 5.14 | 5.43 | 94.5 µM
Cc1cc(C)n(-c2ncc(-c3ccc([N+](=O)[O-])cc3)cn2)n1 | < 4.90 | 5.40 | > 100 µM
CSc1cccc(NC(=O)C2C3C=CC4(O3)C2C(=O)N(CCN2CCCCC2)C4C(=O)NC2CCCC(C)C2C)c1 (centres undefined) | < 4.95 | 5.72 | 48.1 µM
COc1cccc(N2CCN(CCNCCc3ccccc3)[C@@H](Cc3ccc(O)cc3)C2)c1 | 6.25 | 6.40 | > 10 µM
CC1CC2(C)Oc3ccccc3CC2C(C)C1CNCCCN(C)C (centres undefined) | 6.62 | 6.72 | 4.79 µM
Cc1nc2c(=O)n(C)c(=O)nc-2n(C)n1 | 6.23 | 6.40 | > 10 µM
O=S(=O)(c1ccc(Br)s1)N1CCN(c2ccccc2)CC1 | 6.39 | 6.40 | > 10 µM
CCC(Nc1ccc(OC)cc1)=C1C(=O)CC(C)(C)CC1=O | < 5.38 | 5.40 | > 100 µM
OCCCNc1cc(-c2ccccn2)nc(-c2ccccn2)n1 | < 6.04 | 6.40 | > 10 µM
CCCCCCN(C(=O)COc1ccccc1)C(CC)c1nc2ccccc2c(=O)n1-c1cccc(Cl)c1 (centres undefined) | 5.56 | 5.40 | > 100 µM
CCc1ccc2[nH]c(=O)c(CN(CCO)C(=S)Nc3ccccc3CC)cc2c1 | 5.58 | 5.72 | 48.1 µM
CCCNC(=O)c1ccc(OC2CCN(CC(c3ccccc3)c3ccccc3)CC2)c(OC)c1 | 6.21 | 6.41 | > 10 µM
CC(C)(C)c1ccc(C2CC3=Nc4ccccc4N(C(=O)c4ccccc4Cl)C(c4ccc(F)cc4)C3=C(O)C2)cc1 (centres undefined) | 5.58 | 5.40 | > 100 µM
CCN(CC)CCCNC(=S)N(CCc1cccc(C)c1)Cc1cc2cc(OC)c(OC)cc2[nH]c1=O | 5.61 | 6.13 | 18.6 µM
COC(=O)c1sc2nc(CN(C)CC(C)C)ccc2c1NC(=O)c1ccc(C)s1 | < 4.90 | 5.40 | > 100 µM

Reference: ChEMBL document CHEMBL1156829 (Proc Natl Acad Sci U S A, 2008)
